According to BigSolDB 2.1:

SMILES: CC(=O)O[C@]1(C(C)=O)CC[C@H]2[C@@H]3C[C@H](C)C4=CC(=O)CC[C@]4(C)[C@H]3CC[C@@]21C
- solubility (mole fraction) (in acetone, 278.15 K): 0.00469
- solubility (mole fraction) (in acetone, 283.15 K): 0.00547
- solubility (mole fraction) (in acetone, 288.15 K): 0.00618
- solubility (mole fraction) (in acetone, 293.15 K): 0.00716
- solubility (mole fraction) (in acetone, 298.15 K): 0.0083
- solubility (mole fraction) (in acetone, 303.15 K): 0.00959
- solubility (mole fraction) (in acetone, 308.15 K): 0.0112
- solubility (mole fraction) (in acetone, 313.15 K): 0.0126
- solubility (mole fraction) (in acetone, 318.15 K): 0.0144
- solubility (mole fraction) (in acetone, 323.15 K): 0.0164
- solubility (mole fraction) (in acetonitrile, 278.15 K): 0.00283
- solubility (mole fraction) (in acetonitrile, 283.15 K): 0.00339
- solubility (mole fraction) (in acetonitrile, 288.15 K): 0.00397
- solubility (mole fraction) (in acetonitrile, 293.15 K): 0.00473
- solubility (mole fraction) (in acetonitrile, 298.15 K): 0.0056
- solubility (mole fraction) (in acetonitrile, 303.15 K): 0.00664
- solubility (mole fraction) (in acetonitrile, 308.15 K): 0.00785
- solubility (mole fraction) (in acetonitrile, 313.15 K): 0.0092
- solubility (mole fraction) (in acetonitrile, 318.15 K): 0.0109
- solubility (mole fraction) (in acetonitrile, 323.15 K): 0.013
- solubility (mole fraction) (in ethanol, 278.15 K): 0.000465
- solubility (mole fraction) (in ethanol, 283.15 K): 0.000655
- solubility (mole fraction) (in ethanol, 288.15 K): 0.000831
- solubility (mole fraction) (in ethanol, 293.15 K): 0.00106
- solubility (mole fraction) (in ethanol, 298.15 K): 0.00135
- solubility (mole fraction) (in ethanol, 303.15 K): 0.00168
- solubility (mole fraction) (in ethanol, 308.15 K): 0.00211
- solubility (mole fraction) (in ethanol, 313.15 K): 0.00267
- solubility (mole fraction) (in ethanol, 318.15 K): 0.0034
- solubility (mole fraction) (in ethanol, 323.15 K): 0.0043
- solubility (mole fraction) (in ethyl acetate, 278.15 K): 0.00327
- solubility (mole fraction) (in ethyl acetate, 283.15 K): 0.00385
- solubility (mole fraction) (in ethyl acetate, 288.15 K): 0.00446
- solubility (mole fraction) (in ethyl acetate, 293.15 K): 0.00515
- solubility (mole fraction) (in ethyl acetate, 298.15 K): 0.00584
- solubility (mole fraction) (in ethyl acetate, 303.15 K): 0.00671
- solubility (mole fraction) (in ethyl acetate, 308.15 K): 0.00773
- solubility (mole fraction) (in ethyl acetate, 313.15 K): 0.00887
- solubility (mole fraction) (in ethyl acetate, 318.15 K): 0.0102
- solubility (mole fraction) (in ethyl acetate, 323.15 K): 0.0118
- solubility (mole fraction) (in isobutanol, 278.15 K): 0.000675
- solubility (mole fraction) (in isobutanol, 283.15 K): 0.00085
- solubility (mole fraction) (in isobutanol, 288.15 K): 0.00121
- solubility (mole fraction) (in isobutanol, 293.15 K): 0.00157
- solubility (mole fraction) (in isobutanol, 298.15 K): 0.00202
- solubility (mole fraction) (in isobutanol, 303.15 K): 0.00269
- solubility (mole fraction) (in isobutanol, 308.15 K): 0.00351
- solubility (mole fraction) (in isobutanol, 313.15 K): 0.00463
- solubility (mole fraction) (in isobutanol, 318.15 K): 0.00611
- solubility (mole fraction) (in isobutanol, 323.15 K): 0.00789
- solubility (mole fraction) (in isobutyl acetate, 278.15 K): 0.00292
- solubility (mole fraction) (in isobutyl acetate, 283.15 K): 0.00334
- solubility (mole fraction) (in isobutyl acetate, 288.15 K): 0.0039
- solubility (mole fraction) (in isobutyl acetate, 293.15 K): 0.00443
- solubility (mole fraction) (in isobutyl acetate, 298.15 K): 0.005
- solubility (mole fraction) (in isobutyl acetate, 303.15 K): 0.00574
- solubility (mole fraction) (in isobutyl acetate, 308.15 K): 0.00654
- solubility (mole fraction) (in isobutyl acetate, 313.15 K): 0.00736
- solubility (mole fraction) (in isobutyl acetate, 318.15 K): 0.00849
- solubility (mole fraction) (in isobutyl acetate, 323.15 K): 0.00979
- solubility (mole fraction) (in isopropanol, 278.15 K): 0.000451
- solubility (mole fraction) (in isopropanol, 283.15 K): 0.000651
- solubility (mole fraction) (in isopropanol, 288.15 K): 0.000754
- solubility (mole fraction) (in isopropanol, 293.15 K): 0.000945
- solubility (mole fraction) (in isopropanol, 298.15 K): 0.00126
- solubility (mole fraction) (in isopropanol, 303.15 K): 0.00166
- solubility (mole fraction) (in isopropanol, 308.15 K): 0.00217
- solubility (mole fraction) (in isopropanol, 313.15 K): 0.00281
- solubility (mole fraction) (in isopropanol, 318.15 K): 0.00373
- solubility (mole fraction) (in isopropanol, 323.15 K): 0.00477
